Experimental data from patent publication US20240139188A1, “Arylamide Compounds For Treatment And Prevention Of Fungal Infections” (priority 2022, published 2024).
Values after ≈ are worked out from the molar mass of the structure shown. Read-outs that look alike come from different tables or passages of the source.

How the values were obtained:
[1] = system: A. fumigatus cell membrane potential; assay: Membrane potential determination, DiBAC4(3); assay type: cell-based, Aspergillus fumigatus; conditions: BRI 1 μM, 30 minutes
Procedure: Membrane potential determination: […] Biotechnol., 2021, 14, 262-276) with modifications. […] After, the germlings were washed with sterile PBS (140 mM NaCl, 2 mM KCl, 10 mM NaHPO4, 1.8 mM KH2PO4, pH 7.4). The fluorescence was analyzed with excitation wavelength of 450-490 nm, and emission wavelength of 525-550 nm on the Observer Z1 fluorescence microscope (Carl Zeiss) using the 100× with Differential interference contrast (DIC) images. Fluorescent images were captured with an AxioCam camera (Carl Zeiss, Inc.) and processed using the Axio Vision software (version 4.8).

[2] = system: A. fumigatus null mutants; assay: Phosphatase and kinase null mutant screening; assay type: cell-based, Aspergillus fumigatus; conditions: for sensitivity of null mutant: BRI 20 μM; as to sensitivity, BRI (20 μM): key: +: sensitivity similar to wild-type; −: more sensitive than the wild-type
Procedure: Phosphatase and kinase null mutant screening: An A. fumigatus phosphatase deletion library encompassing 25 null mutants for phosphatase catalytic subunits (Winkelströter et al., G3 (Bethesda), 2015, 5, 1525-39) was screened for sensitivity to the combination of CAS+BRI. […] In each well a total of 200 μL of liquid MM plus conidia from the different mutants (1×10^4 conidia/mL) was incubated in the presence of BRI (20 μM).

[3] = system: A. fumigatus biofilms; assay: Biofilm assay (XTT); conditions: Aspergillus fumigatus, read-out: inhibition of biofilm formation
Procedure: Biofilm assay: To test the susceptibility of pre-formed A. fumigatus biofilms to
VOR, CAS and to the combination of CAS+BRI and VOR+BRI, a suspension containing 10^6 conidia per mL of the wild-type strain (Δku80 pyrG^+) was prepared in liquid MM and 100 μL of it was inoculated in each well of a 96-well plate. After 24 hours of incubation at 37° C., 50 μL of fresh MM containing CAS, VOR or the combination of VOR and CAS with BRI was added to the biofilm to reach the final concentration as indicated and incubated for a further 12 hours at 37° C. Wells containing untreated conidia were used as a positive control. After, the metabolic activity of the cells was evaluated by adding 50 μL of an aqueous XTT solution (1 mg/mL of XTT and 125 μM of menadione) to each well. The plate was incubated for additional 1 hour at 37° C., centrifuged (2000 rpm, 5 minutes) and 100 μL of the supernatant was transferred to a flat-bottomed 96-well plate. The absorbance was measured at 450 nm on a plate reader (Synergy HTX Multi-Mode Reader- BioTek Instruments). The XTT assay's were performed in six replicates.

[4] = system: CrzA:GFP; assay: CrzA:GFP translocation to the nucleus; conditions: BRI 5 μM, 30 minutes
Procedure: Conidia were germinated in YG medium and grown for 13 hours and then exposed or not to BRI, CAS, and BRI+CAS for 30 minutes.

[5] = system: C. neoformans; assay: MIC for yeasts, CLSI M27-A3; assay type: cell-based, Cryptococcus neoformans; conditions: read-out: MIC BRI
[6] = system: A. fumigatus; assay: Fungal burden, chemotherapeutic murine model of IPA; assay type: in vivo, BALB/c mice; conditions: BRI 50 mg/kg, 3 days post-infection, vs non-treated mice
Procedure: Fungal burden: Inbred female mice (BALB/c strain; body weight, 20-22 g) were housed in vented cages containing five animals. Mice were immunosuppressed with cyclophosphamide (150 mg per kg of body weight), which was administered intraperitoneally on days −4, −1 and 2 prior to and post infection (infection day is “day 0”). Hydrocortisonacetate (200 mg/kg body weight) was injected subcutaneously on day −3. Mice (5 mice per group) were anesthetized by halothane inhalation and infected by intranasal instillation of 20 μL of 1.0×10^6 conidia of A. fumigatus Δku80 pyrG^+ (wild-type) (the viability of the administered inoculum was determined by incubating a serial dilution of the conidia on MM medium, at 37° C.). As a negative control, a group of 5 mice received PBS only. […]
DNA quantity and quality were assessed using a NanoDrop 2000 spectrophotometer (Thermo Scientific). Quantitative real-time PCRs were performed using 400 ng of total DNA from each sample, and primers to amplify the 18S rRNA region of A. fumigatus and an intronic region of mouse GAPDH (glyceraldehyde-3-phosphate dehydrogenase). Six-point standard curves were calculated using serial dilutions of gDNA from A. fumigatus strain and the uninfected mouse lung. Fungal and mouse DNA quantities were obtained from the threshold cycle (Ct) values from an appropriate standard curve.

[7] = system: A. fumigatus clinical isolates; assay: Growth inhibition of clinical isolates by CAS, VOR, BRI and combinations
[8] = system: chitin synthase genes; assay: Chitin synthase mRNA accumulation (RT-qPCR); conditions: wild-type strain, 1 hour exposure; not in the mutant strains
Procedure: RNA-sequencing. cDNA synthesis and RTqPCR: All experiments were carried out in biological triplicates and conidia (10^7) were inoculated in liquid MM and A. fumigatus strains were grown for 16 hours at 37 ° C. and treated or not with different concentrations of BRI, CAS, or BRI+CAS for 1 hour. For total RNA isolation, mycelia were ground in liquid nitrogen and total RNA was extracted using TRIzol (Invitrogen), treated with RQ1 RNase-free DNase I (Promega), and purified using the RNAeasy kit (Qiagen) according to the manufacturer's instructions. RNA was quantified using a NanoDrop and Qubit fluorometer, and analyzed using an Agilent 2100 Bioanalyzer system to assess the integrity of the RNA.
For RT-qPCR, the RNA was reverse transcribed to cDNA using the ImProm-II reverse transcription system (Promega) according to manufacturer's instructions, and the synthesized cDNA was used for real-time analysis using the SYBR green PCR master mix kit (Applied Biosystems) in the ABI 7500 Fast real-time PCR system (Applied Biosystems, Foster City, CA, USA).

[9] = system: C. auris; assay: MIC for yeasts, CLSI M27-A3; assay type: cell-based, Candida auris; conditions: read-out: MIC BRI
[10] = system: C. neoformans; assay: BRI+CAS against yeasts, colony forming units
Procedure: Combination of Brilacidin and caspofungin against yeasts: For measuring the effect of the combination BRI+CAS against yeast fungal pathogens, two methods were used: (i) metabolic activity by XTT-assay and (ii) colony forming units (CFUs). For the first method, C. neoformans, C. albicans, and C. auris 10^4 cells were inoculated in RPMI-1640 supplemented with CAS 0 to 32 μg/ml (for C. neoformans) and 0 to 1 μg/ml (for Candida spp.) or the same concentrations of CAS combined with BRI 0.625 μM (for C. neoformans), BRI 20 μM (for C. albicans), and BRI 10 μM (for C. auris). […] XTT-assays were also used for C. albicans caspofungin resistant strains but with CAS 0.5 μg/ml combined with BRI 5, 10 or 20 μM. The same experimental design was used for the CFUs determination, except that after 48 hours the cells present in the wells were plated on YPD (yeast extract 10g, peptone 20g, dextrose 20g, agar 20 g, water 1000 mL) and the plates were incubated at 30° C. for 24-48 hours for determining the survival percentage.

[11] = system: A. fumigatus; assay: MIC/MEC, CLSI M38-A2; assay type: cell-based, Aspergillus fumigatus; conditions: Aspergillus fumigatus

## N=C(N)NCCCCC(=O)Nc1cc(C(F)(F)F)cc(NC(=O)c2cc(C(=O)Nc3cc(C(F)(F)F)cc(NC(=O)CCCCNC(=N)N)c3OC3CCNC3)ncn2)c1OC1CCNC1 (centres unmarked) [BRI, brilacidin]
[1]
  fluorescent germlings (membrane depolarization): 5%
[2]; Afs35 (wild-type; A1159)
  sensitivity, BRI (20 μM): +
[2]; CEA17 (wild-type; A1160)
  sensitivity, BRI (20 μM): +
[2]; ΔcalA (Afu5g09360)
  sensitivity, BRI (20 μM): −
[2]; ΔcalA
  sensitivity of null mutant: more sensitive
[2]; ΔcdcA (Afu3g12250)
  sensitivity, BRI (20 μM): +
[2]; ΔdspA (Afu1g13040)
  sensitivity, BRI (20 μM): +
[2]; ΔdspB (Afu1g03540)
  sensitivity, BRI (20 μM): +
[2]; ΔdspD (Afu2g02760)
  sensitivity, BRI (20 μM): +
[2]; ΔltpA (Afu2g01880)
  sensitivity, BRI (20 μM): +
[2]; ΔmpkA
  sensitivity, BRI (20 μM): −
  sensitivity of null mutant: more sensitive
[2]; ΔmpkB
  sensitivity, BRI (20 μM): +
[2]; ΔmpkC
  sensitivity, BRI (20 μM): +
[2]; ΔnemA (Afu1g09460)
  sensitivity, BRI (20 μM): +
[2]; ΔpphA (Afu5g12010)
  sensitivity, BRI (20 μM): +
[2]; ΔppmA (Afu8g04580)
  sensitivity, BRI (20 μM): +
[2]; ΔppsA (Afu5g11690)
  sensitivity, BRI (20 μM): +
[2]; ΔpptA (Afu5g06700)
  sensitivity, BRI (20 μM): +
[2]; ΔppzA (Afu2g03950)
  sensitivity, BRI (20 μM): +
[2]; ΔpsrA (Afu1g04790)
  sensitivity, BRI (20 μM): +
[2]; ΔptcA (Afu1g15800)
  sensitivity, BRI (20 μM): +
[2]; ΔptcB (Afu1g09280)
  sensitivity, BRI (20 μM): +
[2]; ΔptcD (Afu5g13740)
  sensitivity, BRI (20 μM): +
[2]; ΔptcE (Afu2g03890)
  sensitivity, BRI (20 μM): +
[2]; ΔptcF (Afu1g06860)
  sensitivity, BRI (20 μM): +
[2]; ΔptcG (Afu5g13340)
  sensitivity, BRI (20 μM): +
[2]; ΔptcH (Afu4g00720)
  sensitivity, BRI (20 μM): +
[2]; ΔptpB (Afu3g10970)
  sensitivity, BRI (20 μM): +
[2]; ΔptyA (Afu6g06650)
  sensitivity, BRI (20 μM): +
[2]; ΔpypA (Afu4g04710)
  sensitivity, BRI (20 μM): +
[2]; ΔsakA
  sensitivity, BRI (20 μM): +
[2]; ΔsakA, ΔmpkC
  sensitivity, BRI (20 μM): +
[2]; ΔsitA (Afu6g11470)
  sensitivity, BRI (20 μM): +
[2]; ΔyphA (Afu4g07000)
  sensitivity, BRI (20 μM): +
[3]
  inhibition at 20 µM: ~10%
  inhibition at 40 µM: ~60%
[4]
  germlings with CrzA:GFP in the nuclei: 0%
[5]; Cryptococcus neoformans H99
  MIC: 2.5 µM (≈ 2.34 µg/mL)
[5]; Cryptococcus neoformans, C. neoformans
  MIC: 2.5 µM (≈ 2.34 µg/mL)
[6]
  reduction of fungal burden in the lungs: approximately 50%
[7]; 25 clinical isolates susceptible to CAS and 3 CAS-resistant clinical strains
  activity of BRI alone: no activity
[7]; CM7555 CAS^R, BRI 20 μM
  growth, BRI alone: +
[7]; CM7555 CAS^R, BRI 40 μM
  growth, BRI alone: +
[7]; DPL1033 CAS^R, BRI 20 μM
  growth, BRI alone: +
[7]; DPL1033 CAS^R, BRI 40 μM
  growth, BRI alone: +
[7]; MD24053 CAS^R, BRI 20 μM
  growth, BRI alone: +
[7]; MD24053 CAS^R, BRI 40 μM
  growth, BRI alone: +
[7]; WT (CEA17), BRI 20 μM
  growth inhibition, BRI alone: +
[7]; WT, BRI 20 μM
  growth, BRI alone: +
[7]; WT, BRI 40 μM
  growth, BRI alone: +
[8]
  chitin synthase gene expression: induce some of these genes
[9]; Candida auris 467/2015
  MIC: 80 µM (≈ 75 µg/mL)
[9]; Candida auris 468/2015
  MIC: 80 µM (≈ 75 µg/mL)
[9]; Candida auris 469/2015
  MIC: 80 µM (≈ 75 µg/mL)
[9]; Candida auris 470/2015
  MIC: 80 µM (≈ 75 µg/mL)
[9]; Candida auris 471/2015
  MIC: 80 µM (≈ 75 µg/mL)
[9]; Candidozyma auris, C. auris
  MIC: 80 µM (≈ 75 µg/mL)
[10]; BRI alone, C. neoformans
  type of activity: fungicidal
[10]; Cryptococcus neoformans H99, plating after 48 hours
  Mechanism: Fungicidal
[11]; A. fumigatus CM7555 CAS^R, read-out: MIC BRI
  MIC: > 80 µM
[11]; A. fumigatus DPL1033 CAS^R, read-out: MIC BRI
  MIC: > 80 µM
[11]; A. fumigatus MD24053 CAS^R, read-out: MIC BRI
  MIC: > 80 µM
[11]; A. fumigatus VOR^R clinical isolate named in c0 of the row, read-out: MIC BRI
  MIC: 80 µM (≈ 75 µg/mL)
[11]; A. fumigatus WT (CEA17), read-out: MIC BRI
  MIC: 80 µM (≈ 75 µg/mL)
[11]; A. fumigatus WT, read-out: MIC BRI
  MIC: > 80 µM
[11]; A. fumigatus clinical isolate named in c0 of the row, read-out: MIC BRI
  MIC: > 80 µM
[11]; wild-type A. fumigatus, read-out: BRI MIC
  MIC: > 80 µM
